Here are results for 31 compounds from patent US7795261B2, “Substituted 1-piperidin-4-yl-4-pyrrolidin-3-yl-piperazine derivatives and their use as neurokinin antagonists” (Janssen Pharmaceutica NV, priority 2002, dated 2010).

Assay [1] addresses NK1 (Homo sapiens, UniProt P25103). In words: Signal transduction (ST), intracellular Ca++ (FLIPR), NK1 antagonistic activity. Conditions: read-out: pIC50 NK1 (converted). Format: cell-based. In outline:
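Confluent cells loaded with 2 μM Fluo3 (1 h, 37 °C, probenecid), preincubated 20 min at RT with antagonist concentration range, then agonist added. Peak Ca++ transient read by FLIPR in Krebs buffer pH 7.4; IC50 by non-linear regression.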

For assay [2], the target named is T1, NK3 (Homo sapiens, UniProt P29371).
T1 sequence (P29371 1-465): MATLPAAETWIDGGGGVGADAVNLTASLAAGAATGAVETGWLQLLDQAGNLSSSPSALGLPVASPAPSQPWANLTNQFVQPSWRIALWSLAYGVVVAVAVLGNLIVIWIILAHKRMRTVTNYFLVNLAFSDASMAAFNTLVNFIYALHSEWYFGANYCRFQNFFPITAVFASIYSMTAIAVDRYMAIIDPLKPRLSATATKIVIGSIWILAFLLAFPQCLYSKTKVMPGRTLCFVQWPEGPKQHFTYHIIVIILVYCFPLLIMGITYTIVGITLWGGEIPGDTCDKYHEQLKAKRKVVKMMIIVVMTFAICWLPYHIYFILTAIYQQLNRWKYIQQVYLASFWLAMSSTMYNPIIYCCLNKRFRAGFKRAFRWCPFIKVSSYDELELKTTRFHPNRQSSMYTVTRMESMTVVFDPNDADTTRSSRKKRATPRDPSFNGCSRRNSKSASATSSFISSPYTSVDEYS
As to the kind of experiment: Signal transduction (ST), intracellular Ca++ (FLIPR), NK3. Format: cell-based. Conditions: read-out: pIC50 NK3 (converted).

NK1, sequence (P25103 whole entry): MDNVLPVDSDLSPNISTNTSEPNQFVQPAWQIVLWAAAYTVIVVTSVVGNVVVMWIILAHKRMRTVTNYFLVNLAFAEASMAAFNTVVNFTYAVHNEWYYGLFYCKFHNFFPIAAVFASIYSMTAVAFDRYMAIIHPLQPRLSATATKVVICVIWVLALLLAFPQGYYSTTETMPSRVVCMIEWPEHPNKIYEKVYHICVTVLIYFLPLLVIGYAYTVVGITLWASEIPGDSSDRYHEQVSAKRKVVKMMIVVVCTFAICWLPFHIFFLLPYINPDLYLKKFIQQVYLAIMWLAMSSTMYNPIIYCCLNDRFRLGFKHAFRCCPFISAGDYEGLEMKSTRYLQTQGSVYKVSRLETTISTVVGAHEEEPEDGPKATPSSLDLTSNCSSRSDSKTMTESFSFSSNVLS

Take `CC(C)(C)OC(=O)N1CCC[C@@H]1C(=O)N1CCC(N2CCN([C@H]3CCN(C(=O)c4cc(C(F)(F)F)cc(C(F)(F)F)c4)[C@H](Cc4ccccc4)C3)CC2)C1` (some centres unmarked) [Compound 189]: the IC50 in assay [1] is 7.94 nM; in assay [2] it was 251 nM.
With `N#Cc1ccccc1C(=O)N1CCC(N2CCN(C3CCN(C(=O)c4cc(C(F)(F)F)cc(C(F)(F)F)c4)C(Cc4ccccc4)C3)CC2)C1` (centres unmarked) [Compound 195], the results for the IC50 in assay [1] and in assay [2] were 12.6 nM and 398 nM, respectively.
As to `CC(=O)N1CCC(N2CCN([C@H]3CCN(C(=O)c4cc(C(F)(F)F)cc(C(F)(F)F)c4)[C@H](Cc4ccccc4)C3)CC2)C1` (some centres unmarked) [Compound 198], the IC50 is 31.6 nM in assay [1] and 2510 nM in assay [2].
For the compound `CC(C)C(=O)N1CCC(N2CCN([C@H]3CCN(C(=O)c4cc(C(F)(F)F)cc(C(F)(F)F)c4)[C@H](Cc4ccccc4)C3)CC2)C1` (some centres unmarked) [Compound 199], the IC50 in assay [1] was 10 nM; in assay [2], 1580 nM.
`CC(C)(C)CC(=O)N1CCC(N2CCN([C@H]3CCN(C(=O)c4cc(C(F)(F)F)cc(C(F)(F)F)c4)[C@H](Cc4ccccc4)C3)CC2)C1` (some centres unmarked) [Compound 200]: the results for the IC50 in assay [1] and in assay [2] were 7.94 nM and 398 nM, respectively.
The corresponding values for `CN(C)CC(=O)N1CCC(N2CCN([C@H]3CCN(C(=O)c4cc(C(F)(F)F)cc(C(F)(F)F)c4)[C@H](Cc4ccccc4)C3)CC2)C1` (some centres unmarked) [Compound 202] are 39.8 nM and 6310 nM.
The corresponding values for `O=C(c1cc(C(F)(F)F)cc(C(F)(F)F)c1)N1CCC(N2CCN(C3CCN(C(=O)C(F)(F)F)C3)CC2)CC1Cc1ccccc1` (centres unmarked) [Compound 203] are 20 nM and 1000 nM.
With `O=C(c1cc(C(F)(F)F)cc(C(F)(F)F)c1)N1CCC(N2CCN(C3CCN(c4noc5ccccc45)C3)CC2)CC1Cc1ccccc1` (centres unmarked) [Compound 204], the results for the IC50 in assay [1] and in assay [2] were 25.1 nM and 2510 nM, respectively.
The corresponding values for `O=C(CNc1ccccc1CO)N1CCC(N2CCN(C3CCN(C(=O)c4cc(C(F)(F)F)cc(C(F)(F)F)c4)C(Cc4ccccc4)C3)CC2)C1` (centres unmarked) [Compound 207] are 20 nM and 3980 nM.
The corresponding values for `O=C(Cn1cnc2ccccc21)N1CCC(N2CCN([C@H]3CCN(C(=O)c4cc(C(F)(F)F)cc(C(F)(F)F)c4)[C@H](Cc4ccccc4)C3)CC2)C1` (some centres unmarked) [Compound 208] are 15.8 nM and 2510 nM.
Consider `CC(C)(C)OC(=O)N1CCC(C(=O)N2CCC(N3CCN([C@H]4CCN(C(=O)c5cc(C(F)(F)F)cc(C(F)(F)F)c5)[C@H](Cc5ccccc5)C4)CC3)C2)CC1` (some centres unmarked) [Compound 210], for which the IC50 is 15.8 nM in assay [1] and 7940 nM in assay [2].
The corresponding values for `O=C([C@H]1CCCN1)N1CCC(N2CCN([C@H]3CCN(C(=O)c4cc(C(F)(F)F)cc(C(F)(F)F)c4)[C@H](Cc4ccccc4)C3)CC2)C1` (some centres unmarked) [Compound 213] are 20 nM and 1580 nM.
The corresponding values for `O=C1CCCN1CC(=O)N1CCC(N2CCN([C@H]3CCN(C(=O)c4cc(C(F)(F)F)cc(C(F)(F)F)c4)[C@H](Cc4ccccc4)C3)CC2)C1` (some centres unmarked) [Compound 214] are 20 nM and 3980 nM.
Consider `O=C(CN1CCOC1=O)N1CCC(N2CCN([C@H]3CCN(C(=O)c4cc(C(F)(F)F)cc(C(F)(F)F)c4)[C@H](Cc4ccccc4)C3)CC2)C1` (some centres unmarked) [Compound 215], for which the IC50 in assay [1] was 31.6 nM; in assay [2], 5010 nM.
Consider `CC(C)(C)OC(=O)N1CCC(C(=O)N2CCC(N3CCN([C@H]4CCN(C(=O)c5cc(C(F)(F)F)cc(C(F)(F)F)c5)[C@H](Cc5ccccc5)C4)CC3)C2)C1` (some centres unmarked) [Compound 228], for which the IC50 in assay [1] is 25.1 nM; in assay [2], 6310 nM.
The corresponding values for `CC(C)(C)OC(=O)N1CCCC(C(=O)N2CCC(N3CCN([C@H]4CCN(C(=O)c5cc(C(F)(F)F)cc(C(F)(F)F)c5)[C@H](Cc5ccccc5)C4)CC3)C2)C1` (some centres unmarked) [Compound 229] are 31.6 nM and 2510 nM.
The corresponding values for `O=C(C1CCOC1)N1CCC(N2CCN(C3CCN(C(=O)c4cc(C(F)(F)F)cc(C(F)(F)F)c4)C(Cc4ccc(F)cc4)C3)CC2)C1` (centres unmarked) [Compound 274] are 10 nM and 3980 nM.
The corresponding values for `O=C(C1CC1)N1CCC(N2CCN(C3CCN(C(=O)c4cc(C(F)(F)F)cc(C(F)(F)F)c4)C(Cc4ccc(F)cc4)C3)CC2)C1` (centres unmarked) [Compound 277] are 10 nM and 2510 nM.
With `O=C(c1ccc(CCOCc2ccccc2)s1)N1CCC(N2CCN(C3CCN(C(=O)c4cc(C(F)(F)F)cc(C(F)(F)F)c4)C(Cc4ccccc4)C3)CC2)C1` (centres unmarked) [Compound 356], the IC50 is 126 nM in assay [1] and 3980 nM in assay [2].
In the case of `Cc1nc2c(o1)CCn1ccnc1C2N1CCC(N2CCN(C3CCN(C(=O)c4cc(C(F)(F)F)cc(C(F)(F)F)c4)C(Cc4ccccc4)C3)CC2)C1` (centres unmarked) [Compound 375], the IC50 in assay [1] is 12.6 nM; in assay [2], 3980 nM.
The corresponding values for `CC1(C)OCC(CNC(=C[N+](=O)[O-])N2CCC(N3CCN([C@H]4CCN(C(=O)c5cc(C(F)(F)F)cc(C(F)(F)F)c5)[C@H](Cc5ccccc5)C4)CC3)C2)O1` (some centres unmarked) [Compound 376] are 25.1 nM and 3980 nM.
Regarding `O=C(c1cc(C(F)(F)F)cc(C(F)(F)F)c1)N1CC[C@H](N2CCN(C3CCN(C(=C[N+](=O)[O-])N4CCCC4)C3)CC2)C[C@H]1Cc1ccccc1` (some centres unmarked) [Compound 377], the figures for the IC50 in assay [1] and in assay [2] were 15.8 nM and 6310 nM, respectively.
The corresponding values for `CC(C)N1CC(CN2CCC(N3CCN(C4CCN(C(=O)c5cc(C(F)(F)F)cc(C(F)(F)F)c5)C(Cc5ccccc5)C4)CC3)C2)OC1=O` (centres unmarked) [Compound 385] are 31.6 nM and 3980 nM.
The corresponding values for `O=C1CC[C@@H](C(=O)N2CCC(N3CCN([C@H]4CCN(C(=O)c5cc(C(F)(F)F)cc(C(F)(F)F)c5)[C@H](Cc5ccccc5)C4)CC3)C2)O1` (some centres unmarked) [Compound 386] are 20 nM and 5010 nM.
Consider `O=C1CC[C@H](C(=O)N2CCC(N3CCN([C@H]4CCN(C(=O)c5cc(C(F)(F)F)cc(C(F)(F)F)c5)[C@H](Cc5ccccc5)C4)CC3)C2)O1` (some centres unmarked) [Compound 387], for which the IC50 in assay [1] is 20 nM; in assay [2] it was 5010 nM.
Take `CC(C)(C)OCC(=O)N1CCC(N2CCN([C@H]3CCN(C(=O)c4cc(C(F)(F)F)cc(C(F)(F)F)c4)[C@H](Cc4ccccc4)C3)CC2)C1` (some centres unmarked) [Compound 388]: the IC50 was 15.8 nM in assay [1] and 794 nM in assay [2].
The corresponding values for `CC(=O)OCC(=O)N1CCC(N2CCN(C3CCN(C(=O)c4cc(C(F)(F)F)cc(C(F)(F)F)c4)C(Cc4ccccc4)C3)CC2)C1` (centres unmarked) [Compound 389] are 15.8 nM and 6310 nM.
The corresponding values for `CC(C)(C)OCCC(=O)N1CCC(N2CCN(C3CCN(C(=O)c4cc(C(F)(F)F)cc(C(F)(F)F)c4)C(Cc4ccccc4)C3)CC2)C1` (centres unmarked) [Compound 391] are 20 nM and 3160 nM.
The corresponding values for `CC1(C)OC(=O)[C@@H](CC(=O)N2CCC(N3CCN([C@H]4CCN(C(=O)c5cc(C(F)(F)F)cc(C(F)(F)F)c5)[C@H](Cc5ccccc5)C4)CC3)C2)O1` (some centres unmarked) [Compound 392] are 251 nM and 7940 nM.
As for `COCCC(=O)N1CC[C@H](N2CCN([C@H]3CCN(C(=O)c4cc(C(F)(F)F)cc(C(F)(F)F)c4)[C@H](Cc4ccccc4)C3)CC2)C1` [Compound 413], the IC50 in assay [1] was 31.6 nM; in assay [2], 2000 nM.
The corresponding values for `COCCC(=O)N1CC[C@@H](N2CCN([C@H]3CCN(C(=O)c4cc(C(F)(F)F)cc(C(F)(F)F)c4)[C@H](Cc4ccccc4)C3)CC2)C1` [Compound 414] are 39.8 nM and 631 nM.
